The record followed here is patent US9771372B2, “Compounds useful as S100-inhibitors” (Active Biotech AB, priority 2014, dated 2017).

This assay deals with T1, interaction between biotinylated human S100A9 and human RAGE-Fc (Homo sapiens, UniProt P06702).
T1 construct: made in house; host or cells: E. coli BL21(DE3)/pET1120 (pLR757)
T1 sequence (P06702 1-114): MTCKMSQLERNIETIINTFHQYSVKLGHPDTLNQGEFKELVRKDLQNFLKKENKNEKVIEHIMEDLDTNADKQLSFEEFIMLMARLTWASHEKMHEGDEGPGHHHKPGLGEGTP
Put plainly: AlphaScreen inhibition assay, Biot-hS100A9:hRAGE-Fc (S100A9-RAGE inhibition assay). It counts as binding. The conditions noted are these: biot-hS100A9 and rhRAGE-Fc, Ca2+ and Zn2+ in buffer. From the text:
FIG. 1 is a schematic representation of an assay of the inhibition of the interaction between biotinylated human S100A9 and human RAGE-Fc using a small molecule S100A9 binder.
Inhibition Assay, Biot-hS100A9:hRAGE-Fc
The AlphaScreen (Amplified Luminescent Proximity Homogeneous Assay) contains two types of beads, Alpha Donor beads and Acceptor beads (PerkinElmer). Upon laser excitation at 680 nm a photosensitizer in the Donor bead converts ambient oxygen to a more excited singlet state. The singlet oxygen molecule diffuses (maximum 200 nm) to react with a thioxene derivative in the Acceptor bead and generates a chemiluminescence reaction. Fluorophores in the Acceptor bead subsequently emit light at 520-620 nm which can be detected in the EnVision® Multilabel plate Reader (PerkinElmer). The beads are light sensitive and all work with the beads is performed under subdued light conditions or using green filters on light sources (Roscolux Chroma Green #389, Rosco).
In the AlphaScreen Inhibition Assay described here, protein A (Staphylococcus aureus) conjugated Acceptor beads are used together with streptavidin coated Donor beads (Perkin Elmer 6760617M). The Acceptor beads are pre-incubated with Fc-tagged recombinant human RAGE (rhRAGE-Fc) allowing binding of the rhRAGE-Fc to protein A on the beads. Biotinylated human S100A9 (biot-hS100A9) is pre-incubated with the low molecular test compounds. The pre-mixes are then added to the wells of a micro-plate and incubated allowing interaction between biot-hS100A9 and rhRAGE-Fc. Subsequent addition of streptavidin coated Donor beads causes binding of the streptavidin to the biotinylated hS100A9. After an additional incubation the signal is measured.
Without inhibitory compounds, the interaction of biot-hS100A9 to rhRAGE-Fc will bring the Acceptor and Donor beads in close proximity thus generating a high signal. With an inhibitor present the complex will not form resulting in a decreased signal.
The AlphaScreen assay method is used for screening of the inhibitory effect of different compound samples at fixed concentrations or for IC50 determination by varying the compound concentrations. Samples of test compounds and references are prepared from solutions in DMSO. Relevant reference inhibitors and DMSO are used as controls for defined inhibition and non-inhibition, respectively in the assay. The percent inhibition in assay for test compounds and references are calculated by comparing their obtained assay signals with the signal values for the control with only DMSO (no compound).
Assay concentration of biotinylated hS100A9 and rhRAGE-Fc are batch dependent, and are determined and defined by separate cross-titration experiments using this AlphaScreen inhibition method to verify the optimal setup regarding signal strength and achievement of a defined inhibition with relevant reference compounds. The Final assay concentrations of Acceptor and Donor beads are 20 μg/mL.
Assay buffer is prepared by adding CaCl2 and ZnCl2 to HBS-P and is used freshly prepared in the experiment.
Biotin-hS100A9 solution for the experiment is prepared by dilution of appropriate amount of stock solution biot-hS100A9 in assay buffer (with CaCl2 and ZnCl2) and incubation in room temperature for 30 minutes.
rhRAGE-Fc solution for the experiment is prepared by dilution appropriate amount of rhRAGE-Fc stock in assay buffer.
Protein A Acceptor beads are diluted in assay buffer and are added to an equal volume of the prepared diluted rhRAGE-Fc solution. The beads are light sensitive. The vial is covered with aluminum foil and incubated at room temperature in the dark until biot-hS100A9+compound incubation is finished (see below).
Streptavidin-coated Donor beads are diluted in assay buffer. The beads are very light sensitive. The vial is covered with aluminum foil and incubated at room temperature in the dark until use (see below).
Samples of test compounds, appropriate references and DMSO control are diluted in assay buffer. […]
(In Alpha technology, singlet oxygen from a donor bead excites a nearby acceptor bead.)

What is called IC50 is the concentration that inhibits the measured activity by half. `O=C(CCC1CCCC1)NC1(C(F)(F)F)C(=O)Nc2nc3cc4c(cc3n21)CCC4` (centres unmarked) [Example 78, 3-cyclopentyl-N-[12-oxo-11-(trifluoromethyl)-10,13,15-triazatetracyclo[7.6.0.0^3,7.0^10,14]-pentadeca-1(9),2,7,14-tetraen-11-yl]propanamide]: the IC50 came to 1200 nM.

Regarding `COCCNc1cccc(C(=O)NC2(C(F)(F)F)C(=O)Nc3nc4cc(Cl)c(Cl)cc4n32)n1` (centres unmarked) [Example 71, N-[10,11-dichloro-4-oxo-3-(trifluoromethyl)-2,5,7-triazatricyclo[6.4.0.0^2,6]dodeca-1(12),6,8,10-tetraen-3-yl]-6-[(2-methoxyethyl)amino]pyridine-2-carboxamide], the IC50 came to 200 nM.

`O=C(NC1(C(F)(F)F)C(=O)Nc2nc3cc(Cl)c(Cl)cc3n21)[C@@H]1CCCN1` (mixture of isomers) [Example 41, (2S)—N-[10,11-dichloro-4-oxo-3-(trifluoromethyl)-2,5,7-triaza-tricyclo[6.4.0.0^2,6]dodeca-1(12),6,8,10-tetraen-3-yl]pyrrolidine-2-carboxamide]: the IC50 was 2000 nM.

For the compound `O=C(CCC1CCCC1)NC1(C(F)(F)F)C(=O)Nc2nc3c(NS(=O)(=O)C4CC4)cccc3n21` (centres unmarked) [Example 165, 3-cyclopentyl-N-[9-cyclopropanesulfonamido-4-oxo-3-(trifluoromethyl)-2,5,7-triazatricyclo[6.4.0.0^2,6]dodeca-1(12),6,8,10-tetraen-3-yl]propanamide], the IC50 amounted to 1430 nM.

In the case of `CC(C)(C)c1ccc(-c2cccc3c2nc2n3C(NC(=O)CCC3CCCC3)(C(F)(F)F)C(=O)N2)cc1` (centres unmarked) [Example 191, N-[9-(4-tert-butylphenyl)-4-oxo-3-(trifluoromethyl)-2,5,7-triazatricyclo[6.4.0.0^2,6]dodeca-1(12),6,8,10-tetraen-3-yl]-3-cyclopentylpropanamide], the IC50 was found to be 1490 nM.

Consider `O=C(CCC1CCCCN1)NC1(C(F)(F)F)C(=O)Nc2nc3cc(Cl)c(Cl)cc3n21` (centres unmarked) [Example 69, N-[10,11-dichloro-4-oxo-3-(trifluoromethyl)-2,5,7-triazatricyclo[6.4.0.0^2,6]dodeca-1(12),6,8,10-tetraen-3-yl]-3-(piperidin-2-yl)propanamide], for which the IC50 was determined as 4900 nM.

With `COc1cccc(-c2cccc3c2nc2n3C(NC(=O)CCC3CCCC3)(C(F)(F)F)C(=O)N2)c1` (centres unmarked) [Example 189, 3-cyclopentyl-N-[9-(3-methoxyphenyl)-4-oxo-3-(trifluoromethyl)-2,5,7-triazatricyclo[6.4.0.0^2,6]dodeca-1(12),6,8,10-tetraen-3-yl]propanamide], the IC50 stood at 950 nM.

For `Cc1cc2nc3n(c2cc1C)C(NC(=O)CCC1CCCC1)(C(F)(F)F)C(=O)N3` (single isomer, unassigned) [Example 218a, 3-cyclopentyl-N-[10,11-dimethyl-4-oxo-3-(trifluoromethyl)-2,5,7-triazatricyclo[6.4.0.0^2,6]dodeca-1(12),6,8,10-tetraen-3-yl]propanamide], the IC50 is 3130 nM.

For `Cc1cc2nc3n(c2cc1C)C(NC(=O)[C@H](C)OCC1CCCC1)(C(F)(F)F)C(=O)N3` (single isomer, unassigned) [Example 215b], the IC50 stood at 2660 nM.

Take `Cc1cc2nc3n(c2cc1C)C(NC(=O)c1cccc(C2CCCCC2)n1)(C(F)(F)F)C(=O)N3` (centres unmarked) [Example 36, 6-cyclohexyl-N-[10,11-dimethyl-4-oxo-3-(trifluoromethyl)-2,5,7-triazatricyclo[6.4.0.0^2,6]-dodeca-1(12),6,8,10-tetraen-3-yl]pyridine-2-carboxamide]: the IC50 came to 3700 nM.

On to `COCCNc1nc(C(=O)NC2(C(F)(F)F)C(=O)Nc3nc4c(C#N)c(Cl)ccc4n32)cs1` (centres unmarked) [Example 139, N-[10-chloro-9-cyano-4-oxo-3-(trifluoromethyl)-2,5,7-triazatricyclo[6.4.0.0^2,6]dodeca-1(8),6,9,11-tetraen-3-yl]-2-[(2-methoxyethyl)amino]-1,3-thiazole-4-carboxamide], for which the IC50 amounted to 1270 nM.
